Here are results for one compound from patent publication US8809001B2, “High throughput assays for inhibitors and activators of PAQR receptors” (University of Florida Research Foundation, Inc., priority 2007, dated 2014).

Where “and” joins values, the source holds several entries; their conditions need not be identical. Equal entries are not always repeated.

One assay deals with T1, mPRα (Homo sapiens, UniProt Q86WK9).
T1 construct: Full length and truncated mPRγ and mPRα were expressed in wild type cells grown in 2% galactose from the pGREG536 vector; expressed in transfected cells; host or cells: Saccharomyces cerevisiae (BY4742 wild type; also gpa mutants), GAL1-driven plasmids (TPI1 promoter in pJK90)
T1 sequence (Q86WK9 1-346): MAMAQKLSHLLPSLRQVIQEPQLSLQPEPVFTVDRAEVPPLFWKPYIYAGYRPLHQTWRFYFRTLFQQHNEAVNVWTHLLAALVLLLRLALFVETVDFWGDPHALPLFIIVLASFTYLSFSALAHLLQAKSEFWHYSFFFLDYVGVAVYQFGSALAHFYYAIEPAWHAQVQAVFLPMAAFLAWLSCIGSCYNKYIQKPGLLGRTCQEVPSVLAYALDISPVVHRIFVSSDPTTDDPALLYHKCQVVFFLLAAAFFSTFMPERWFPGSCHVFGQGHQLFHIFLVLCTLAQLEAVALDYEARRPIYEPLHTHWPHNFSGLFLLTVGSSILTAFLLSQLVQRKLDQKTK
Briefly: cell-based. The text has this:
Plasmids and primers. Human PAQRs were cloned into various vectors by PCR from commercially/publically available cDNAs. […] The OST4 open reading frame in pJK90 was replaced with the PAQR6 and mPRα open reading frames by gap repair. Primers for all cloning reactions are listed herein. Proteins expressed in pYES260 have an N-terminal 6×-histidine tag followed by a TEV protease cleavage site. Proteins expressed in pGREG536 have an N-terminal 7×-HA tag. Proteins expressed in the pRS316 vector are untagged. The pYES260, pRS316 and pGREG536 vectors allow for galactose-inducible expression via the GAL1 promoter. […] A pRS316-based plasmid containing the STE2 gene under the control of the GAL1 promoter (Feng et al., 2000) was kindly provided by Dr. Nicholas G. Davis (Wayne State University).
Assays and growth conditions. Strains were maintained using standard protocol and grown in synthetic defined (SD) media with the appropriate amino acids to match the auxotrophies of the individual strains. […] In brief, overnights of cells grown in SD-glucose media were re-inoculated into iron-deficient LIM to induce the expression of FET3. […] All ligands were added to the growth medium upon re-inoculation into LIM. For experiments in which steroids were added as ligands, steroids were added from ethanol stocks and “untreated” controls are actually treated with an equal volume of ethanol to control for vehicle effects. […] All experiments were performed at least three times and a representative experiment is shown. EC50 values were obtained using the web-based BioDataFit software using sigmoidal curve-fitting. (web site changbioscience.com/stat/ec50.html)

The target in the next assay is T2, mPRγ (Homo sapiens, UniProt Q9NXK6).
T2 construct: Full length and truncated mPRγ and mPRα were expressed in wild type cells grown in 2% galactose from the pGREG536 vector; expressed in transfected cells; host or cells: Saccharomyces cerevisiae (BY4742 wild type; also gpa mutants), GAL1-driven plasmids
T2 sequence (Q9NXK6 1-330): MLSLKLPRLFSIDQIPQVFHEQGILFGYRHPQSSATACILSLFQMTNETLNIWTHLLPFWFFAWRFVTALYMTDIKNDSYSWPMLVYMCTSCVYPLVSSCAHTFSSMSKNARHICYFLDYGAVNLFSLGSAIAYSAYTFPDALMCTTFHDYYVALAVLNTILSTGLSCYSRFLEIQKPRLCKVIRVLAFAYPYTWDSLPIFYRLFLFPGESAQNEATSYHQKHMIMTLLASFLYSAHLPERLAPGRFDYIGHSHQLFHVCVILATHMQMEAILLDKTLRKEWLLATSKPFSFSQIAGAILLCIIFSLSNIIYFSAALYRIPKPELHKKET
Kind of assay: FET3-lacZ reporter repression in yeast expressing mPRγ. It counts as cell-based. The text has this:
Plasmids and primers. Human PAQRs were cloned into various vectors by PCR from commercially/publically available cDNAs. PAQRs were cloned into the pYES260 (Melcher, 2000), pRS316 (Liu et al., 1992) or pGREG536 (Jansen et al., 2005) expression vectors using gap repair. The pJK90 plasmid containing a Dual Topology Reporter (DTR)-tagged OST4 gene driven by the constitutive TPI1 promoter was kindly provided by Dr. Gunnar von Heijne (Stockholm University) (Kim et al., 2003). The OST4 open reading frame in pJK90 was replaced with the PAQR6 and mPRα open reading frames by gap repair. Primers for all cloning reactions are listed herein. Proteins expressed in pYES260 have an N-terminal 6×-histidine tag followed by a TEV protease cleavage site. Proteins expressed in pGREG536 have an N-terminal 7×-HA tag. Proteins expressed in the pRS316 vector are untagged. The pYES260, pRS316 and pGREG536 vectors allow for galactose-inducible expression via the GAL1 promoter. […] The FET3-lacZ plasmid was previously described (Kupchak et al., 2007). Plasmids derived from pADM4 carrying hyperactive alleles of Gpa1p (Gpa1p^Q323L) (Slessareva et al., 2006) and Gpa2p (Gpa2p^Q300L) (Harashima et al., 2002) driven by the ADH1 promoter were kindly provided by Dr. Henrik Dohlman (UNC Chapel Hill). A pRS316-based plasmid containing the STE2 gene under the control of the GAL1 promoter (Feng et al., 2000) was kindly provided by Dr. Nicholas G. Davis (Wayne State University).
Assays and growth conditions. Strains were maintained using standard protocol and grown in synthetic defined (SD) media with the appropriate amino acids to match the auxotrophies of the individual strains. Low Iron Medium (LIM) contains EDTA to limit iron-bioavailability and its composition has been previously described (Kupchak et al., 2007). […] In brief, overnights of cells grown in SD-glucose media were re-inoculated into iron-deficient LIM to induce the expression of FET3. 2% galactose was used as a carbon source to induce full expression of PAQR genes driven by the GAL1 promoter, while 0.05% galactose/1.95% raffinose was used for reduced PAQR expression. All ligands were added to the growth medium upon re-inoculation into LIM. For experiments in which steroids were added as ligands, steroids were added from ethanol stocks and “untreated” controls are actually treated with an equal volume of ethanol to control for vehicle effects. Cells were allowed to grow to mid-log phase at which time the activity of the FET3 gene was monitored using a FET3-lacZ promoter-reporter construct. lacZ activities are presented as a percentage of activity seen in untreated cells expressing the appropriate empty expression vector control. For individual experiments, each data point has been done in triplicate and the error bars represent +/−1 standard deviation. All experiments were performed at least three times and a representative experiment is shown. EC50 values were obtained using the web-based BioDataFit software using sigmoidal curve-fitting. (web site changbioscience.com/stat/ec50.html)

As for `CC(=O)[C@H]1CC[C@H]2[C@@H]3CCC4=CC(=O)CC[C@]4(C)[C@H]3CC[C@]12C` [Progesterone, progesterone], the EC50 is 2.2 nM on mPRα (EC50, mPRα column of Table 4, ligand alone); 2.3 nM and 1 to 3 nM at mPRα (EC50, mPRα, Table 3, iron deficient LIM, 0.05% galactose); 1.1 nM on mPRγ (mPRγ column of Table 4, ligand alone); 1.3 nM and 1 to 3 nM on mPRγ (mPRγ, Table 3, iron deficient LIM, 0.05% galactose); 15.5 nM on mPRγ (mPRγ, progesterone in the presence of 100 nM RU-486); 10.7 nM on mPRγ (mPRγ, progesterone in the presence of 10 μM testosterone).
